From patent US12054485B2, “Substituted imidazoquinolines” (BIONTECH SE, priority 2017, dated 2024)

Tested on: Human PBMCs
Experiment: IFN-α induction by TLR agonists in human PBMCs (Luminex)
Type: cell-based
Conditions: 24 h incubation, maximum of bell-shaped curve over 0.0003-1 μM, Table 1
Method: 1) IFN-α Induction Assay—IFN-α induction by TLR Agonists in Human PBMCs
Abbreviations: BSA=bovine serum albumine; PBS=phosphate buffer pH 7.4; PE=phycoerythrin; EDC=1-ethyl-3-(3-dimethylaminopropyl)carbodiimide hydrochloride.
Materials and Devices: Bio Plex 200 Luminex device, and BioPlex Manager software; MultiScreen Filter Plates (Millipore, MABVN1250); low binding reaction vials 1.5 ml (Sarstedt, 72.706.600); Activation Buffer: 0.1M Na-dihydrogen phosphate, 0.1M Di-Na hydrogen phosphate pH 6.2; Sulfo-NHS (N-hydroxysulfosuccinimide) solution: 50 mg/ml in water (freshly prepared); EDC solution: 50 mg/ml in water (freshly prepared); Coupling Buffer: PBS; Washing Buffer: PBS+0.05% Tween20; Blocking Buffer: PBS+10 mg/ml BSA+0.05% sodium azide; Assay Buffer: PBS+10 mg/ml BSA;
Other materials and devices (pipets, reaction vessels, shaker, etc.) were standard lab equipment; water was MilliQ grade quality, buffers were sterile filtered before use.
(Pre-)Incubation of Cells:
In each well of a 96-well U-bottom plate 200,000 PBMCs were pre-incubated in medium (RPMI1640-Gibco #61870-044+10% FBS+1% L-glutamine) for 5 hours at 37° C. and 5% CO2 before the compounds of the present invention or controls were added, respectively. Upon addition of compounds of the present invention or controls, the cells are incubated for another 24 h at 37° C. and 5% CO2.
Luminex assay, Step 1: Coupling of antibody to beads: • transfer a suspension (beads are stored in buffer as provided by manufacturer) of about 5 million MicroPlex Microspheres (=beads) into a low binding reaction vial • centrifuge bead suspension for 1 min at 10,000 g, discard supernatant and resuspend pellet in 160 μl Activation Buffer, repeat once • add 20 μl Sulfo-NHS solution and 20 μl EDC solution, vortex • incubate for 20 min in the absence of light • centrifuge bead suspension for 1 min at 10,000 g, discard supernatant and resuspend pellet in 500 μl Coupling Buffer, repeat once • add capture antibody (CaptureAK eBioscience #BMS160, 5 μg per 1 Mio beads) • incubate 2 h at RT in the absence of light while swaying • centrifuge bead suspension for 1 min at 10,000 g, discard supernatant and resuspend pellet in 500 μl Washing Buffer, repeat once • centrifuge bead suspension for 1 min at I0,000 g, discard supernatant and resuspend pellet in 100 μl Blocking Buffer
Luminex assay, Step 2: Measurement • add 100 μlAssay Buffer into each filter plate well (seal any unused wells with adhesive tape), then remove buffer • add about 2,000 beads per well per analyte (per analyte, a different bead type with distinct fluorescence color is used), suspended in […] of Assay Buffer • remove buffer and wash twice with 100 μl Washing Buffer per well • per well, add 50 μl sample solution from the (pre-)incubation step (cell supernatant), or Standard (IFN-α standard eBioscience #BMS216MST—concentration gradient, highest standard concentration 2500 pg/ml) or Assay Buffer (as blanks) • shake plate • incubate plate for 2 h at RT in the absence of light, while swaying the plate • wash three times with 100 μl Washing Buffer per well • add 25 μl antibody detection mix (DetectionAK eBioscience #BMS1016BT diluted 1:1000) in Assay Buffer per well, then vortex plate • incubate plate for 1 h at RT in the absence of light, while swaying the plate • wash three times with 100 μl Washing Buffer per well • add 50 μl Streptavidin/PE (diluted 1:200 in Assay Buffer) per well, then vortex plate • incubate plate for 10 min at RT in the absence of light, while swaying the plate • wash three times with 100 μl Washing Buffer per well • add 100 μl Assay Buffer per well, then vortex plate • start Luminex measurement according to manufacturer's instructions, measuring at least 50 beads per well per analyte
The compounds were tested at 8 different concentrations (1 μM, 0.3 μM, 0.1 μM, 0.03 μM, 0.01 μM 0.003 μM, 0.001 μM, 0.0003 μM) using a half-logarithmic dilution. […]

`CCc1nc2c(N)nc3ccccc3c2n1CCCCN(C(C)=O)C1CCOCC1` [Example 1, N-(4-(4-Amino-2-ethyl-1H-imidazo[4,5-c]quinolin-1-yl)butyl)-N-(tetrahydro-2H-pyran-4-yl)acetamide] was tested, and the “Maximum IFN-α release” value was 1750 pg/mL.
